Tests used:
[1] = tested on: allo-reactive cytotoxic T cell (EL4 target cells); experiment: suppression of induction of allo-reactive cytotoxic T cell in mouse allogenic mixed lymphocyte culture (MLC), 51Cr release; assay type: cell-based
Procedure: The target cells used were leukemia cells EL4 from the syngenic (H-2^b) C57BL/6 mouse as used for preparation of the stimulator cells. By incubating 10^6 EL4 cells in the presence of 370 KBq of Na2^51 CrO4 at 37° C. for 1 hour, ^51 Cr was incorporated into the cytoplasm. The cells were washed, adjusted to the concentration of 10^4 cells/ml and used as the target cells.
For the assay of the cytotoxic activity, 100 μl of the effector cell suspension and 100 μl of the target cell suspension were added to a 96-well flat-bottomed microculture plate, and cultured at 37° C. for 4 hours. The amount of ^51 Cr released into the supernatant was determined and the cytotoxic activity was calculated by the following formula. [formula]
The activity of the cytotoxic T cell is expressed by LU (lytic unit) per 10^6 effector cells.

HL60 = experiment: cytotoxicity to cultured tumor cell line HL60
Procedure: (§3) Cytotoxicity to various human tumor cell lines was examined as follows:
(§4) Cells of human cell lines, K562, MOLT4, U937 and HL60 were respectively suspended to the concentration of 4×10^5 cells/ml in the RPMI1640 culture medium supplemented with 20% FCS. Fifty μl of each suspension was added to each well of a 96-well microtest plate to which 50 μl of the test solution had been added. After culturing the suspension at 37° C. in an atmosphere of 5% carbon dioxide for 72 hours, the absorbancy at 570 nm was measured in the same way as with the colorimetry using MTT in Experiment Example 1, and the percent suppression was calculated by the following formula, which was used as an index of cytotoxicity.

[2] = cytotoxicity to cultured tumor cell line HL60; details: human, hl60 cells, Suppression
Procedure: as §3, §4

[3] = tested on: IL-2 production in mouse allogenic MLC; experiment: suppression of IL-2 production in mouse allogenic MLC; assay type: cell-based
Procedure: (§1) Mouse allogenic MLC was carried out as follows:
(§2) After termination of culture, the supernatant was collected and used as the supernatant of mouse allogenic MLC.
The IL-2 and IL-3 activities in the supernatant of mouse allogenic MLC were assayed in the same way as in Experiment Example 4.

[4] = tested on: anti-sheep red blood cell antibody production; experiment: suppression of mouse anti-sheep red blood cell antibody production; assay type: in vivo; details: for Body weight at 4 days later / Body weight on immunized day / Number of PFC per 1 × 10^7 cell / Number of PFC per spleen / Number of spleen cells / Suppression of number of PFC per 1 × 10^7 cell / Suppression of number of PFC per spleen / Wet weight of spleen / Wet weight of thymus: 4 days
Procedure: Male 5- to 7-week-old BALB/c mice were immunized with sheep red blood cells (5×10^7 cells/mouse, intravenous administration), and the test substance was administered intraperitoneally at the dose of 3 to 10 mg/kg/day for 4 consecutive days from the day of immunization. Four days after immunization, the spleen was resected, and suppression of anti-sheep red blood cell antibody production was examined by counting the number of plaque-forming cells (PFC) by direct plaque method using sheep red blood cells and guinea pig complement. At the same time, the body weight of the mouse, wet weight of the thymus and the spleen, and the number of spleen cells were also determined.

U937 = experiment: cytotoxicity to cultured tumor cell line U937; assay type: cell-based, human
Procedure: as §3, §4

[5] = cytotoxicity to cultured tumor cell line U937; assay type: cell-based, human; details: human, u937 cells, read-out: Suppression
[6] = tested on: allo-specific cytotoxic antibody in serum of EL4-immunized BALB/c mice; experiment: suppression of allo-specific cytotoxic antibody production induced by allogenic cell immunization of mouse; assay type: in vivo
Procedure: Male 5- to 7-week-old BALB/c mice were immunized with leukemia cell EL4 derived from C57BL/6 mice (10^7 cells/mouse, intraperitoneal administration) in the same way as in Experiment Example 9, and the […] Nine to ten days after immunization, a serum was collected from the mice. Fifty μl of the two-fold serial dilution of the serum, 50 μl of a guinea pig complement and EL4 cell suspension labelled with ^51 Cr as the target cell (5×10^4 cells/ml, 100 μl) were together added to a 96-well microtest plate. After incubation at 37° C. for 1 hour, the amount of ^51 Cr released in the supernatant was measured, and the complement-dependent cytotoxicity was calculated by the following formula. [formula]
The value of allo-specific cytotoxic antibody determined as above was expressed by the titer calculated on the basis of the concentration at which the releasing amount of ^51 Cr was 50% of that of ^51 Cr-labelled target cells treated with 0.1 N HCl.

[7] = tested on: IL-3 production in mouse allogenic MLC; experiment: suppression of IL-3 production in mouse allogenic MLC; assay type: cell-based
Procedure: as §1, §2

[8] = Mus musculus, 48 h, 0.0001 μg/ml
[9] = Mus musculus, 48 h, 0.001 μg/ml
[10] = 0.01 mg/kg/day ip × 5, Table 10A
[11] = 0.03 mg/kg/day ip × 5, Table 10A
[12] = 0.1 mg/kg/day ip × 5, Table 10A
[13] = 0.3 mg/kg/day ip × 5, Table 10A
[14] = 0.3 mg/kg/day po × 5, Table 10B

SMILES: CCCCCCCCCCCCCCCC[C@@H](O)[C@H](O)[C@@](N)(CO)C(=O)O [Example 2]
- Cytotoxic activity ([1]; 0.001 μg/ml, BALB/c responder): 16.0 LU/10^6
- Cytotoxic activity ([1]; 0.01 μg/ml, BALB/c responder): 13.0 LU/10^6
- Cytotoxic activity ([1]; 0.1 μg/ml, BALB/c responder): < 1.0 LU/10^6
- Cytotoxic activity ([1]; 1 μg/ml, BALB/c responder): < 1.0 LU/10^6
- inhibition at 0.001 µg/mL ([1]; Mus musculus, T-cell, 144 h, 0.001 μg/ml, BALB/c responder): 18.4%
- inhibition at 0.01 µg/mL ([1]; Mus musculus, T-cell, 144 h, 0.01 μg/ml, BALB/c responder): 33.6%
- inhibition at 0.1 µg/mL ([1]; Mus musculus, T-cell, 144 h, 0.1 μg/ml, BALB/c responder): > 95%
- inhibition at 1 µg/mL ([1]; Mus musculus, T-cell, 144 h, 1 μg/ml, BALB/c responder): > 95%
- induction of the allo-reactive cytotoxic T cell (in words), BALB/c responder ([1]; Table 3A): markedly inhibited
- Absorbancy (HL60; 0.1 μg/ml): 1.385 ± 0.066
- Absorbancy (HL60; 1 μg/ml): 1.466 ± 0.126
- Absorbancy (HL60; 10 μg/ml): 1.441 ± 0.018
- cytotoxicity at 72 h ([2]; 0.1 μg/ml): 7%
- cytotoxicity at 72 h ([2]; 1 μg/ml): 1.6%
- cytotoxicity at 72 h ([2]; 10 μg/ml): 3.3%
- IL-2 activity ([3]; 0.0001 μg/ml): 3.9 U/ml
- IL-2 activity ([3]; 0.001 μg/ml): 3.1 U/ml
- IL-2 activity ([3]; 0.01 μg/ml): 3.6 U/ml
- IL-2 activity ([3]; 0.1 μg/ml): 1 U/ml
- IL-2 activity ([3]; 1 μg/ml): 1.6 U/ml
- inhibition at 0.0001 µg/mL [3, 8]: 13.3%
- inhibition at 0.001 µg/mL [3, 9]: 31.1%
- inhibition at 0.01 µg/mL ([3]; Mus musculus, 48 h, 0.01 μg/ml): 17.8%
- inhibition at 0.1 µg/mL ([3]; Mus musculus, 48 h, 0.1 μg/ml): 68.9%
- inhibition at 1 µg/mL ([3]; Mus musculus, 48 h, 1 μg/ml): 64.4%
- Body weight at 4 days later ([4]; 3 mg/kg/day ip): 24 ± 1 g
- Body weight on immunized day ([4]; 3 mg/kg/day ip): 22 ± 1 g
- Number of PFC per 1 × 10^7 cell ([4]; 3 mg/kg/day ip): 5.5 ± 0.8 × 10^3 /1 × 10^7 cell
- Number of PFC per spleen ([4]; 3 mg/kg/day ip): 17.9 ± 3.6 × 10^4 /spleen
- Number of spleen cells ([4]; 3 mg/kg/day ip): 3.3 ± 0.5 × 10^8 cell
- Suppression of number of PFC per 1 × 10^7 cell ([4]; 3 mg/kg/day ip): 36.8%
- Suppression of number of PFC per spleen ([4]; 3 mg/kg/day ip): 23.2%
- Wet weight of spleen ([4]; 3 mg/kg/day ip): 58 ± 11 mg
- Wet weight of thymus ([4]; 3 mg/kg/day ip): 318 ± 42 mg
- Body weight at 4 days later ([4]; 10 mg/kg/day ip): 23 ± 1 g
- Body weight on immunized day ([4]; 10 mg/kg/day ip): 22 ± 1 g
- Number of PFC per 1 × 10^7 cell ([4]; 10 mg/kg/day ip): 4.0 ± 2.0 × 10^3 /1 × 10^7 cell
- Number of PFC per spleen ([4]; 10 mg/kg/day ip): 10.2 ± 5.5 × 10^4 /spleen
- Number of spleen cells ([4]; 10 mg/kg/day ip): 2.5 ± 0.2 × 10^8 cell
- Suppression of number of PFC per 1 × 10^7 cell ([4]; 10 mg/kg/day ip): 54.9%
- Suppression of number of PFC per spleen ([4]; 10 mg/kg/day ip): 56.2%
- Wet weight of spleen ([4]; 10 mg/kg/day ip): 58 ± 10 mg
- Wet weight of thymus ([4]; 10 mg/kg/day ip): 233 ± 25 mg
- effect on anti-sheep red blood cell antibody production (in words) ([4]; ip): exhibits suppressive effect on anti-sheep red blood cell antibody production
- Absorbancy (U937; 0.1 μg/ml): 0.669 ± 0.030
- Absorbancy (U937; 1 μg/ml): 0.681 ± 0.009
- Absorbancy (U937; 10 μg/ml): 0.673 ± 0.111
- cytotoxicity at 72 h ([5]; 1 μg/ml): 0.1%
- cytotoxicity at 72 h ([5]; 10 μg/ml): 1.3%
- cytotoxicity at 72 h ([5]; 0.1 μg/ml): 1.9%
- Allogenic cell-specific antibody in serum, suppression [6, 10]: 0%
- Allogenic cell-specific antibody in serum, titer [6, 10]: 119 ± 47
- Allogenic cell-specific antibody in serum, suppression [6, 11]: 0%
- Allogenic cell-specific antibody in serum, titer [6, 11]: 87 ± 55
- Allogenic cell-specific antibody in serum, suppression [6, 12]: 0%
- Allogenic cell-specific antibody in serum, titer [6, 12]: 89 ± 32
- Allogenic cell-specific antibody in serum, suppression [6, 13]: 39.9%
- Allogenic cell-specific antibody in serum, titer [6, 13]: 50 ± 48
- Allogenic cell-specific antibody in serum, suppression [6, 14]: 39.3%
- Allogenic cell-specific antibody in serum, titer [6, 14]: 130 ± 45
- Allogenic cell-specific antibody in serum, suppression ([6]; 1 mg/kg/day ip × 5, Table 10A): > 80%
- Allogenic cell-specific antibody in serum, titer ([6]; 1 mg/kg/day ip × 5, Table 10A): < 16
- Allogenic cell-specific antibody in serum, suppression ([6]; 1 mg/kg/day po × 5, Table 10B): 37.9%
- Allogenic cell-specific antibody in serum, titer ([6]; 1 mg/kg/day po × 5, Table 10B): 133 ± 50
- Allogenic cell-specific antibody in serum, suppression ([6]; 3 mg/kg/day ip × 5, Table 10A): > 80%
- Allogenic cell-specific antibody in serum, titer ([6]; 3 mg/kg/day ip × 5, Table 10A): < 16
- Allogenic cell-specific antibody in serum, suppression ([6]; 3 mg/kg/day po × 5, Table 10B): 58.9%
- Allogenic cell-specific antibody in serum, titer ([6]; 3 mg/kg/day po × 5, Table 10B): 88 ± 47
- Allogenic cell-specific antibody in serum, suppression ([6]; 10 mg/kg/day po × 5, Table 10B): 68.7%
- Allogenic cell-specific antibody in serum, titer ([6]; 10 mg/kg/day po × 5, Table 10B): 67 ± 16
- allo-specific cytotoxic antibody production in serum (in words) ([6]; intraperitoneal or oral, Tables 10A to 10D): strongly suppresses allo-specific cytotoxic antibody production in serum
- IL-3 activity ([7]; 0.0001 μg/ml): 42.8 U/ml
- IL-3 activity ([7]; 0.001 μg/ml): 45.3 U/ml
- IL-3 activity ([7]; 0.01 μg/ml): 42.2 U/ml
- IL-3 activity ([7]; 0.1 μg/ml): 23.6 U/ml
- IL-3 activity ([7]; 1 μg/ml): 11.0 U/ml
- inhibition at 0.0001 µg/mL [7, 8]: 16.3%
- inhibition at 0.001 µg/mL [7, 9]: 9.9%
- inhibition at 0.01 µg/mL ([7]; Mus musculus, 48 h, 0.01 μg/ml): 17.9%
- inhibition at 0.1 µg/mL ([7]; Mus musculus, 48 h, 0.1 μg/ml): 65.3%
- inhibition at 1 µg/mL ([7]; Mus musculus, 48 h, 1 μg/ml): 97.4%

Source: US5068247A, “2-aminopentanoic acid compounds and their use as immunosuppressants” (priority 1989, dated 1991)
